Measurements: patent US20180280321A1, “COMPOSITIONS AND METHODS THAT INHIBIT QUORUM SENSING” (The Office of Innovation Commercialization, priority 2015, published 2018)
Entries after “also recorded” stand apart in the source; their conditions may differ. Where two headings read alike, the source gives them in different places.

Legend:
[1] = target: AgrAC binding to agr promoter DNA (P2-FAM) (Staphylococcus aureus, UniProt P0A0I7); design: species or system S. aureus; conditions: bead-based flow cytometry, biotinylated AgrAC on SA beads, P2-FAM 1.6 μM
human PMNs = assay type: cell-based; conditions: supernatant from OHM- versus vehicle-treated LAC, 5 μg/mL OHM, two hours
A549 cells = assay: Eukaryotic cytotoxicity, XTT assay; assay type: cell-based, human; conditions: A549, 24-hour incubation, at concentrations required for agr-inhibition
Experimental: (§1) Sigma-Aldrich, St. Louis, Mo.) and phenazine methosulfate (PMS; Sigma-Aldrich, St. Louis, Mo.) were used to perform an XTT assay as previously described (Scuderio et al., 1988, Cancer Res. 48:4827-4833). After 24 hours, spent media was removed and fresh media containing the indicated drug concentrations or vehicle was added to the cells and incubated for an additional 24 hours. […] Cell viability was assessed by the metabolic reduction of tetrazolium measured at OD490. Data are presented as percent viable cells compared to vehicle control.

HEK293 cells = assay: Eukaryotic cytotoxicity, XTT assay; assay type: cell-based, human; conditions: HEK293, 24-hour incubation, at concentrations required for agr-inhibition
Experimental: as §1

HepG2 cells = assay: Eukaryotic cytotoxicity, XTT assay; assay type: cell-based, human; conditions: hepatocyte cell line (HepG2), 24-hour incubation, at concentrations required for agr-inhibition
Experimental: as §1

AgrAC-C199S = AgrAC-C199S (Staphylococcus aureus, UniProt P0A0I7, C199S); assay type: binding, S. aureus; conditions: SPR, His-tagged AgrAC-C199S on NTA biosensor, 25° C.
agr::P3 promoter [2] = assay type: cell-based, S. aureus
USA300 isolate LAC = assay type: in vivo, SKH1 mice; conditions: for bacterial burden at the site of infection: LAC infected, single OHM treatment
agr::P3 promoter [3] = assay type: cell-based; conditions: agr-I S. epidermidis AH3408, 5 μg/mL OHM, 24 hours
[4] = test system: S. aureus LAC / LACΔagr in human PMNs; assay type: cell-based
[5] = test system: S. aureus LAC / LACΔagr in RAW 264.7 macrophages; assay type: cell-based, mouse; conditions: LAC pre-treated with 5 μg/mL OHM, RAW 264.7, MOI 1:1; vs vehicle
MRSA isolate LAC [6] = assay type: in vivo, SKH1 mice; conditions: OHM injected subq near the site of infection four hours post-infection
[7] = test system: RNAIII, psm α and hla transcription; assay type: cell-based, S. aureus
AgrC-WT isolate AH3469 = assay type: cell-based, S. aureus
S. aureus = assay type: cell-based; conditions: at concentrations that inhibit quorum sensing
AgrAC and P2-FAM complex = AgrAC and P2-FAM complex (Staphylococcus aureus, UniProt P0A0I7); assay type: binding, S. aureus; conditions: EMSA, 2 μM AgrAC
MRSA isolate LAC [8] = assay type: in vivo; conditions: STZ-treated diabetic C57BL/6 mice, OHM given along with 5×10^7 CFU LAC

## O=C1c2cc(O)cc(O)c2C(=O)c2c(O)cc(CO)cc21 [OHM, 1,3,8-trihydroxy-6-(hydroxymethyl)anthracene-9,10-dione]
[1]
  inhibition of AgrAC binding to agr promoter DNA: dose-dependent inhibition
Human PMNs
  PMN survival in the presence of S. aureus supernatant: significantly increased survival
A549 cells
  cell viability (toxicity): non-toxic
HEK293 cells
  cell viability (toxicity): non-toxic
HepG2 cells
  cell viability (toxicity): non-toxic
AgrAC-C199S
  direct binding to immobilized AgrAC: bound directly
agr::P3 promoter [2]; agr-I, agr-II, agr-III, agr-IV reporter strains, OHM 100 to 0.05 μM
  agr::P3 promoter activation (quorum sensing): inhibited quorum sensing by all four agr types
agr::P3 promoter [2]; among polyhydroxyanthraquinones from Penicillium restrictum
  in vitro agr-I transcription inhibition activity: most potent
USA300 isolate LAC; day seven post-infection
  bacterial burden at the site of infection: reduced
USA300 isolate LAC; day three post-infection
  bacterial burden at the site of infection: reduced
USA300 isolate LAC; mouse, in vivo
  differences between OHM and vehicle treated mice (abscesses and ulcers): no differences were observed
  histological analysis of skin sections: abscess formation and ulceration: overall reduction in abscess formation and ulceration
  local Hla expression at the site of infection (western blot): decreased local Hla expression
  local IL-1β in abscess tissue (multiplex): significant reductions
  local IL-6 in abscess tissue (multiplex): significant reductions
  local TNFα in abscess tissue (multiplex): significant reductions
  transcription of il-1β in abscess tissue: reduced transcription
  transcription of il-6 in abscess tissue: reduced transcription
  transcription of nlrp3 in abscess tissue: decreased transcription
  transcription of tnfα in abscess tissue: reduced transcription
USA300 isolate LAC; mouse, in vivo, 0.25 mg/kg
  morbidity (assessed by weight loss): significantly inhibited
USA300 isolate LAC; mouse, in vivo, sc, 0.25 mg/kg
  abscess formation: significantly inhibited
  ulcer (dermonecrosis) formation: significantly inhibited
agr::P3 promoter [3]
  agr activation (agr::P3 promoter): significantly inhibited
[4]; LAC pre-treated with 5 μg/mL OHM, MOI 1:1, vs vehicle
  intracellular killing by human PMNs: significantly increased intracellular killing
[4]; bacteria pre-treated with vehicle or OHM, human PMNs
  opsonophagocytosis: total number and percent of bacteria phagocytosed: equivalent
[5]
  intracellular killing by mouse macrophages: significantly increased intracellular killing
MRSA isolate LAC [6]
  abscess formation: limits abscess formation
  ulcer area (dermonecrosis): limits abscess formation and dermonecrosis
[7]
  transcription of RNAIII: decreased transcription
  transcription of alpha-hemolysin (hla): decreased transcription
AgrC-WT isolate AH3469
  agr-mediated Hla expression (lysis of rabbit RBCs): inhibited Hla expression
S. aureus
  bacterial growth (OD600): do not impact bacterial growth; also recorded: absence of bactericidal or bacteriostatic effects
AgrAC and P2-FAM complex
  inhibition of AgrAC binding to agr promoter DNA: dose-dependent inhibition
MRSA isolate LAC [8]
  abscess formation: limits abscess formation
  ulcer formation (dermonecrosis): limits abscess formation and dermonecrosis
